By IC50 is commonly meant the concentration that gives 50% inhibition.

For assay [1], the system named is Aβ40 in conditioned medium of cells stably expressing Amyloid Precursor Protein (APP). The assay is described as follows: In vitro BACE-1 cell-based assay (Aβ40 sandwich ELISA). Conditions: read-out: IC50 IP (μM) BACE1 cell. In short, it runs like this:
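APP-stable cells, pre-cultured 24 h at 37° C in DMEM/10% FBS, were treated 24 h with compound in a 10-point series starting at 100 μM or 10 μM (0.1% DMSO final). Secreted Aβ40 in conditioned medium was measured by pAb40/biotin-6E10 sandwich ELISA with Europium time-resolved fluorescence; IC50 from percent inhibition versus concentration.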

A further assay concerns Aβ 40 in rat brain. The assay is described as follows: In vivo inhibition of beta-secretase: Aβ40 reduction in rat brain. The following applies: 10 mpk, after 4 h. An excerpt: (§1) In Vivo Inhibition of Beta-Secretase
Several animal models, including mouse, rat, dog, and monkey, may be used to screen for inhibition of beta-secretase activity in vivo following administration of a test compound sample. Animals used in this invention can be wild type, transgenic, or gene knockout animals. […] One to twenty-four hours following the administration of compound, animals are sacrificed, and brains as well as cerebrospinal fluid (CSF) and plasma are removed for analysis of A-beta levels and drug or test compound concentrations (Dovey et al., 2001, Journal of Neurochemistry, 76,173-181) Beginning at time 0, animals are administered by oral gavage, or other means of delivery such as intravenous injection, an inhibitory test compound of up to 100 mg/kg in a standard, conventional formulation, such as 2% hydroxypropyl methylcellulose, 1% Tween80. A separate group of animals receive 2% hydroxypropyl methylcellulose, 1% Tween80 alone, containing no test compound, and serve as a vehicle-control group. At the end of the test period, animals are sacrificed and brain tissues, plasma or cerebrospinal fluid are collected. […] Homogenates are centrifuged at 355,000 g, 4° C. for 30 minutes. CSF or brain supernatants are then analyzed for the presence of A-beta peptide by specific sandwich ELISA assays based on ECL (Electrochemiluminescence) technology. For example, rat Abeta40 is measured using biotinylated-4G8 (Signet) as a capture antibody and Fab40 (an in-house antibody specific to the C-terminal of Abeta40) as a detection antibody.
(§2) Actual vehicles used: Oral: 2% HPMC, 1% Tween80, pH 2.2

The next assay concerns Aβ 40 in rat CSF. The assay is described as follows: In vivo inhibition of beta-secretase: Aβ40 reduction in rat CSF. Conditions: 10 mpk, after 4 h.
Source text: as §1
Several animal models, including mouse, rat, dog, and monkey, may be used to screen for inhibition of beta-secretase activity in vivo following administration of a test compound sample. Animals used in this invention can be wild type, transgenic, or gene knockout animals. For example, the Tg2576 mouse model, prepared and conducted as described in Hsiao et al., 1996, Science 274, 99-102, and other non-transgenic or gene knockout animals are useful to analyze in vivo inhibition of Amyloid beta peptide (Abeta) production in the presence of inhibitory test compounds. Generally, 2 to 18 month old Tg2576 mice, gene knockout mice or non-transgenic animals are administered test compounds formulated in vehicles, such as cyclodextran, phosphate buffers, hydroxypropyl methylcellulose or other suitable vehicles. One to twenty-four hours following the administration of compound, animals are sacrificed, and brains as well as cerebrospinal fluid (CSF) and plasma are removed for analysis of A-beta levels and drug or test compound concentrations (Dovey et al., 2001, Journal of Neurochemistry, 76,173-181) Beginning at time 0, animals are administered by oral gavage, or other means of delivery such as intravenous injection, an inhibitory test compound of up to 100 mg/kg in a standard, conventional formulation, such as 2% hydroxypropyl methylcellulose, 1% Tween80. A separate group of animals receive 2% hydroxypropyl methylcellulose, 1% Tween80 alone, containing no test compound, and serve as a vehicle-control group. At the end of the test period, animals are sacrificed and brain tissues, plasma or cerebrospinal fluid are collected. […] Homogenates are centrifuged at 355,000 g, 4° C. for 30 minutes. CSF or brain supernatants are then analyzed for the presence of A-beta peptide by specific sandwich ELISA assays based on ECL (Electrochemiluminescence) technology. For example, rat Abeta40 is measured using biotinylated-4G8 (Signet) as a capture antibody and Fab40 (an in-house antibody specific to the C-terminal of Abeta40) as a detection antibody. For example, 4 hours after administration of 30 mg/kg oral dose of the test compound in 2% hydroxypropyl methylcellulose, 1% Tween80 (pH2.2) to 200 g male Sprague Dawley rats, amyloid beta peptide levels are measured for reduction by X % and Y % in cerebrospinal fluid and brain, respectively, when compared to the levels measured in the vehicle-treated or control mice.
as §2
The compounds of the invention may be shown to reduce the formation and/or deposition of amyloid beta peptide in the cerebrospinal fluid (CSF) as well as in the brain of a mouse or rat at either 3 mpk, 10 mpk or 30 mpk (mpk=mg compound per kg weight of the animal) dosing concentrations after 4 h.

The target in the next assay is human recombinant BACE1 (Homo sapiens (Human), UniProt P56817). As to the kind of experiment: In vitro enzymatic BACE1 FRET assay. In kind it is biochemical. Conditions: read-out: IC50 IP (μM) BACE1 enzyme. A digest of the protocol:
(§3)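 FRET cleavage assay using Ni-NTA-purified recombinant protease and 50 nM quenched peptide substrate, 1 h. Stopped by neutralising with Tris; fluorescence at 488/590 nm.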

The target of the next assay is Recombinant Cat D (Homo sapiens (Human), UniProt P07339). As to the kind of experiment: In vitro enzymatic Cathepsin D (Cat D) FRET assay. Conditions: read-out: IC50 IP (μM) CatD. In kind it is biochemical. In short, it runs like this:
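Assay pH is 3.5 (0.05 M citrate, 5 mM CHAPS, 10% DMSO final) with Cat D from CHO cells. A 20 nM quenched peptide substrate is cleaved over one hour; the reaction is ended with Tris and read by fluorescence (ex 500, em 580 nm).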

A further assay concerns the target human recombinant BACE2 (Homo sapiens (Human), UniProt Q9Y5Z0). The assay is described as follows: In vitro enzymatic BACE2 FRET assay. Type of assay: biochemical. Conditions: read-out: IC50 IP (μM) BACE2 enzyme. In short, it runs like this:
as §3

Sequence of Recombinant Cat D (P07339 65-412): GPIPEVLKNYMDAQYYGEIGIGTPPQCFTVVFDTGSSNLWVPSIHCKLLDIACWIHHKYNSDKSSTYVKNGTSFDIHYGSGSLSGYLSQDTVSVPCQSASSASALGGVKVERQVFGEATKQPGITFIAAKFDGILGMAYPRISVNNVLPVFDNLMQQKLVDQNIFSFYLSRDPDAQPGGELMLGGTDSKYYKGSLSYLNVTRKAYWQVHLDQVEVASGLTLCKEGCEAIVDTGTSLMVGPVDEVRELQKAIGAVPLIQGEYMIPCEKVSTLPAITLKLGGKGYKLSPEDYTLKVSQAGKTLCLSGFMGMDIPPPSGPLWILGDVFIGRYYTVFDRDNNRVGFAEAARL
Sequence of human recombinant BACE2 (Q9Y5Z0 63-518): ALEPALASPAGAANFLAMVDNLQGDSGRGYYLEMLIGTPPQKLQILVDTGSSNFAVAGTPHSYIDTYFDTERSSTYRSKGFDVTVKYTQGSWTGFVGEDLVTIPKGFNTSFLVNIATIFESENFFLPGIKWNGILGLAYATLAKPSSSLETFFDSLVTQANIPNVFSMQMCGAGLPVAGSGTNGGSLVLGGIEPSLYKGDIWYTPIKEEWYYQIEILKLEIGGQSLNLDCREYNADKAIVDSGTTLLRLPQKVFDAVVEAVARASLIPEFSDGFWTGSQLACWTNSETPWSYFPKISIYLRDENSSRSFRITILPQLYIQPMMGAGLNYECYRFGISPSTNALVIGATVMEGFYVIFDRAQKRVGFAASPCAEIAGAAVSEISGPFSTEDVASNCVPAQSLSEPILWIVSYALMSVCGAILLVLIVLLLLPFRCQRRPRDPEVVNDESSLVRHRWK
Sequence of human recombinant BACE1 (P56817 46-501): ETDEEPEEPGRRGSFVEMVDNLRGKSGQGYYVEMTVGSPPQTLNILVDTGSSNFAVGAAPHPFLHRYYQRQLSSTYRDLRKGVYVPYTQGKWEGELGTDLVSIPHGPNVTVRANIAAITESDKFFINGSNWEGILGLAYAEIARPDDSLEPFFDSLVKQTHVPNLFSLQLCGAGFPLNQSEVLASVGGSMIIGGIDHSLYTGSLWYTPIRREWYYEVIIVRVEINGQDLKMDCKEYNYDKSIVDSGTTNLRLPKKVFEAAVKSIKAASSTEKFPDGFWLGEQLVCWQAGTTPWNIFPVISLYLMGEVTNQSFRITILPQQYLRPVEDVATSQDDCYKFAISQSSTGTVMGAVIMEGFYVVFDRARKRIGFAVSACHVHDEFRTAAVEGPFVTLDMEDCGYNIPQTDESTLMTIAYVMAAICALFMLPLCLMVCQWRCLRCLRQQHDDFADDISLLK

For `COC[C@]12C[C@H]1[C@@](C)(c1cc(NC(=O)c3cnc(OCC4CC4)cn3)cc(F)c1F)N=C(N)S2` [Example 1021, N-(3-((1S,5S,6S)-3-amino-1-(methoxymethyl)-5-methyl-2-thia-4-azabicyclo[4.1.0]hept-3-en-5-yl)-4,5-difluorophenyl)-5-(cyclopropylmethoxy)-2-pyrazinecarboxamide], the IC50 is 0.0116 µM in assay [1], 0.000918 µM on human recombinant BACE1, 776 µM on Recombinant Cat D and 0.0808 µM at human recombinant BACE2. In the assay with Aβ 40 in rat brain, the “% Aβ 40 reduction in rat brain at 10 mpk” value is 25%. Moreover, in the assay with Aβ 40 in rat CSF, the “% Aβ 40 reduction in rat CSF at 10 mpk” value was 44%.

Take `Cc1cc(OCC(F)(F)F)cnc1C(=O)Nc1ccc(F)c([C@@]2(C)N=C(N)S[C@@]3(C(F)F)C[C@@H]23)c1` [Example 680, N-(3-((1S,5S,6S)-3-amino-1-(difluoromethyl)-5-methyl-2-thia-4-azabicyclo[4.1.0]hept-3-en-5-yl)-4-fluorophenyl)-3-methyl-5-(2,2,2-trifluoroethoxy)-2-pyridinecarboxamide]: the IC50 in assay [1] is 0.0153 µM; at human recombinant BACE1, 0.0139 µM; on Recombinant Cat D it was 1110 µM; on human recombinant BACE2, 0.846 µM. Moreover, in the assay on Aβ 40 in rat brain, the “% Aβ 40 reduction in rat brain at 10 mpk” value turned out to be 8%. In the assay with Aβ 40 in rat CSF, the “% Aβ 40 reduction in rat CSF at 10 mpk” value is given as 30%.

`COC[C@]12C[C@H]1[C@@](C)(c1cc(Nc3nccc4nc(OCc5cocn5)cnc34)cc(F)c1F)N=C(N)S2` [Example 628, N-(3-((1S,5S,6S)-3-amino-1-(methoxymethyl)-5-methyl-2-thia-4-azabicyclo[4.1.0]hept-3-en-5-yl)-4,5-difluorophenyl)-2-(1,3-oxazol-4-ylmethoxy)pyrido[3,4-b]pyrazin-5-amine]: the IC50 stood at 0.0148 µM in assay [1], 0.00324 µM on human recombinant BACE1, 443 µM at Recombinant Cat D and 0.0383 µM on human recombinant BACE2. Also, the “% Aβ 40 reduction in rat brain at 10 mpk” value in the assay with Aβ 40 in rat brain was 50%. Further, the “% Aβ 40 reduction in rat CSF at 10 mpk” value with Aβ 40 in rat CSF turned out to be 59%.

Consider `C#CCOc1cnc2c(Nc3cc(F)c(F)c([C@@]4(C)N=C(N)S[C@@]5(CF)C[C@H]54)c3)ncnc2c1` [Example 813, N-(3-((1S,5S,6S)-3-amino-1-(fluoromethyl)-5-methyl-2-thia-4-azabicyclo[4.1.0]hept-3-en-5-yl)-4,5-difluorophenyl)-7-(2-propyn-1-yloxy)pyrido[3,2-d]pyrimidin-4-amine], for which the IC50 in assay [1] worked out at 0.002 µM; at human recombinant BACE1 it was 0.0009 µM; on Recombinant Cat D, 447 µM; at human recombinant BACE2, 0.0258 µM. The “% Aβ 40 reduction in rat brain at 10 mpk” value with Aβ 40 in rat brain was found to be 50%. In addition, the “% Aβ 40 reduction in rat CSF at 10 mpk” value in the assay with Aβ 40 in rat CSF is 68%.

Take `C[C@]1(c2cc(NC(=O)c3cnc(OCC(F)(F)C(F)F)cn3)ccc2F)N=C(N)S[C@]2(CO)[C@H]1C2(F)F` [Example 708, N-(3-((1S,5S,6R)-3-amino-7,7-difluoro-1-(hydroxymethyl)-5-methyl-2-thia-4-azabicyclo[4.1.0]hept-3-en-5-yl)-4-fluorophenyl)-5-(2,2,3,3-tetrafluoropropoxy)-2-pyrazinecarboxamide]: the IC50 in assay [1] came out at 0.0215 µM; at human recombinant BACE1, 0.000969 µM; on Recombinant Cat D, 438 µM; on human recombinant BACE2, 0.107 µM. Also, the “% Aβ 40 reduction in rat brain at 10 mpk” value in the assay on Aβ 40 in rat brain was −4%. In addition, the “% Aβ 40 reduction in rat CSF at 10 mpk” value in the assay with Aβ 40 in rat CSF stood at 13%.

In the case of `NC1=N[C@](CF)(c2cc(Nc3nccc4nc(OCc5ncco5)cnc34)cc(F)c2F)[C@@H]2C[C@@H]2S1` [Example 842, N-(3-((1S,5S,6S)-3-amino-5-(fluoromethyl)-2-thia-4-azabicyclo[4.1.0]hept-3-en-5-yl)-4,5-difluorophenyl)-2-(1,3-oxazol-2-ylmethoxy)pyrido[3,4-b]pyrazin-5-amine], the IC50 was 0.0217 µM in assay [1], 0.00256 µM at human recombinant BACE1, more than 400 µM on Recombinant Cat D and 0.119 µM at human recombinant BACE2. Moreover, the “% Aβ 40 reduction in rat brain at 10 mpk” value with Aβ 40 in rat brain worked out at 25%. Besides, the “% Aβ 40 reduction in rat CSF at 10 mpk” value with Aβ 40 in rat CSF came to 51%.

The record behind these values is US20160046618A1, “Cyclopropyl Fused Thiazin-2-Amine Compounds as Beta-Secretase Inhibitors and Methods of Use” (AMGEN INC., priority 2014, published 2016).
